This note sets out measurements from article PMC12147183, “Lacritin cleavage-potentiated targeting of iron - respiratory reciprocity promotes bacterial death” (The Journal of Biological Chemistry, 2025).

In assay [1] the test system is Keio E. coli K-12 single gene knockout strains. Put plainly: Forward genetic N-104 resistance screen of Keio single gene knockouts. The class given is cell-based, Escherichia coli. The settings on record: 100 μM N-104, slope 5 h after/5 h before; resistance cutoff 0.75. Here is the method:
We took advantage of the Alamar Blue viability assay ([85]). Briefly, wells of deep 96-well plates (1896–2000, USA Scientific) each containing 0.8 ml of LB broth supplemented with 50 μg/ml of kanamycin (BP906–5, Fisher Scientific) were singly inoculated with 10 μl aliquots of each of the 3884 Keio E. coli K-12 single gene knockout strains for 16 h at 37 °C on a rotator (160 rpm). A total of 200 μl of a 1:1000 dilution of each (∼10^6 cfu/ml) in 1 mM Na2HPO4, 0.18 mM KH2PO4, 0.27 mM KCl, 13.7 mM NaCl (pH 7.2) containing 10% Alamar Blue (DAL1100, Invitrogen) in wells of black 96-well plates was monitored hourly for 5 h in a SpectraMax M3 plate reader (Molecular Devices) with 3 s agitation before simultaneously reading from the well bottoms at medium PMT voltage with a 590 nm cutoff filter and six flashes per read for the Alamar Blue fluorescence signal (excitation/detection = 560/590 nm). The same hourly monitoring continued for 30 h after the addition of N-104, N-80/C-25 (negative control), or ampicillin (positive control; BP1760–5; Fisher Scientific) at a final concentration of 100 μM each. Data for each of the 3,884 strains were normalized to untreated with 10% Alamar Blue background subtracted as the ratio of the viability slope during the first 5 hours of N-104 treatment versus the slope 5 h previous.

The test system of assay [2] is P. aeruginosa PA14. Here is the method:
After overnight incubation at 37 °C, plates were analyzed on a ChemiDoc XRS (Bio-Rad).

The nature of assay [3]: Surface plasmon resonance on chip-supported Gram-negative model membrane. (Surface plasmon resonance follows binding to a sensor surface in real time, without labels.)
In assay [4] the test system is P. aeruginosa PA14. Put plainly: SYTOX Orange PA14 membrane disruption assay. The conditions noted are these: 25 μM peptide, PA14 10^7 cfu/ml, 1 h at 35 °C, 5 μM SYTOX Orange; positive control 70% ethanol.

≈ marks a conversion by molar mass, not a printed value. Peptide text beside a SMILES is read from it.

Turning to `CC(=O)N[C@@H](C)C(=O)N[C@@H](CCC(N)=O)C(=O)N[C@@H](CCCCN)C(=O)N[C@@H](CC(C)C)C(=O)N[C@@H](CC(C)C)C(=O)N[C@@H](CCCCN)C(=O)N[C@@H](CCCCN)C(=O)N[C@@H](Cc1ccccc1)C(=O)N[C@@H](CO)C(=O)N[C@@H](CC(C)C)C(=O)N[C@@H](CC(C)C)C(=O)N[C@@H](CCCCN)C(=O)N1CCC[C@H]1C(=O)N[C@@H](Cc1c[nH]c2ccccc12)C(=O)N[C@@H](C)C(=O)O` [N-104] (Ac-AQKLLKKFSLLKPWA-OH), in assay [1], the “treated:untreated metabolic slope ratio, ΔSbmA E. coli” value worked out at 0.69 and the “treated:untreated metabolic slope ratio, ΔYaiW E. coli” value is listed as 0.70. In addition, the “N-104 resistance of PA14 ΔyaiW in CFU assay” value with P. aeruginosa PA14 [2] (0, 2 or 5 μM N-104, 10^6 cfu/ml, n = 3) is recorded as “partially resistant”. Also, the “bactericidal efficacy versus osmolarity” value in the assay on P. aeruginosa PA14 [2] (0 to 400 μM N-104 in 30 or 300 mOsm/l phosphate buffer, 8 h, n = 3) is “diminishes as osmolarity increases”. Further, the “minimum inhibitory concentration (MIC)” value in the assay with P. aeruginosa PA14 [2] (PA14, 8 h) came out at 2 µM (≈ 3.63 µg/mL). For the same molecule, in assay [3] (2-25 μM N-104, PC:PG:PE and PC:PG membranes), the “membrane lysis or disruption concluded from SPR” value is given as “not membrane lytic nor substantially membrane disruptive”. The “SPR response after buffer wash versus baseline” value in assay [3] (highest N-104 concentration (25 μM), flow 30 μl/min, 600 s, n = 4) is “remained slightly elevated over baseline”. In the assay on P. aeruginosa PA14 [4], the “membrane disruption (SYTOX Orange uptake)” value is given as “no SYTOX Orange uptake was observed”.
